Reference: patent publication US6274715A, “Tricyclic erythromycin derivatives” (priority 1997, dated 2001)
≈ marks a conversion by molar mass, not a printed value.

What was measured:
Assay type in all cases: cell-based
[1] = test system: STREPTOCOCCUS PYOGENES PIU 2548; experiment: In vitro antibacterial activity, MIC, BHI agar dilution; settings: S. pyogenes PIU 2548, unit assumed
[2] = test system: STREPTOCOCCUS BOVIS A-5169; experiment: as above; settings: S. bovis A-5169, unit assumed
[3] = test system: STAPHYLOCOCCUS AUREUS CMX 642A; experiment: as above; settings: S. aureus CMX 642A, unit assumed
[4] = test system: PSEUDOMONAS AERUGINOSA K799/61; experiment: as above; settings: P. aeruginosa K799/61, unit assumed
PSEUDOMONAS CEPACIA 296I = experiment: as above; settings: P. cepacia 296I, unit assumed
[5] = test system: STAPHYLOCOCCUS EPIDERMIDIS 3519; settings: S. epidermidis 3519; BHI agar; unit assumed
CANDIDA ALBICANS CCH 442 = experiment: In vitro antibacterial activity, MIC, BHI agar dilution; settings: C. albicans CCH 442, unit assumed
[6] = test system: STREPTOCOCCUS PYOGENES 930; experiment: as above; settings: S. pyogenes 930, unit assumed
STR[…] 508 = experiment: as above; settings: S. agalactiae CMX 508, unit assumed
Method in brief: (§1)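 BHI agar dilution, 12 plates; inoculum 1:100 (1:10 slow-growing strains), Steers replicator; 35-37° C, 20-24 h. MIC = lowest conc. with no growth/slight haze/sparse colonies vs growth control, visual read. Erythromycin A reference plate.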

M[…] ATCC 4698 = experiment: as above; settings: M. luteus ATCC 4698, unit assumed
Method in brief: as §1

EN[…] ATCC 8043 = experiment: as above; settings: E. faecium ATCC 8043, unit assumed
Method in brief: as §1

M[…] ATCC 9341 = experiment: as above; settings: M. luteus ATCC 9341, unit assumed
Method in brief: as §1

ESCHERICHIA COLI JUHL = settings: E. coli JUHL; BHI agar; unit assumed
[7] = test system: PSEUDOMONAS AERUGINOSA 5007; experiment: In vitro antibacterial activity, MIC, BHI agar dilution; settings: P. aeruginosa 5007, unit assumed
[8] = test system: ACINETOBACTER CALCOACETICUS CMX 669; experiment: as above; settings: A. calcoaceticus CMX 669, unit assumed
[9] = test system: PSEUDOMONAS AERUGINOSA DPHD-5263; experiment: as above; settings: P. aeruginosa DPHD-5263, unit assumed
[10] = test system: ENTEROBACTER AEROGENES ATCC 13048; experiment: as above; settings: E. aerogenes ATCC 13048, unit assumed
ESCHERICHIA COLI H560 = experiment: as above; settings: E. coli H560, unit assumed
[11] = test system: KLEBSIELLA PNEUMONIAE ATCC 8045; experiment: as above; settings: K. pneumoniae ATCC 8045, unit assumed
[12] = test system: STAPHYLOCOCCUS AUREUS 1775; experiment: as above; settings: S. aureus 1775, unit assumed
[13] = test system: PSEUDOMONAS AERUGINOSA BMH10; experiment: as above; settings: P. aeruginosa BMH10, unit assumed
ESCHERICHIA COLI DC-2 = experiment: as above; settings: E. coli DC-2, unit assumed
[14] = test system: STREPTOCOCCUS PYOGENES EES61; experiment: as above; settings: S. pyogenes EES61, unit assumed
[15] = test system: STAPHYLOCOCCUS AUREUS A-5278; experiment: as above; settings: S. aureus A-5278, unit assumed
[16] = test system: PROVIDENCIA STUARTII CMX 640; settings: P. stuartii CMX 640; BHI agar; unit assumed
[17] = test system: STAPHYLOCOCCUS AUREUS ATCC 6538P; experiment: In vitro antibacterial activity, MIC, BHI agar dilution; settings: S. aureus ATCC 6538P, 35-37° C., 20 to 24 hours, unit assumed
ESCHERICHIA COLI SS = experiment: as above; settings: E. coli SS, unit assumed
[18] = test system: PSEUDOMONAS AERUGINOSA DPHD-2862; experiment: as above; settings: P. aeruginosa DPHD-2862, unit assumed
[19] = test system: STAPHYLOCOCCUS AUREUS NCTC10649M; experiment: as above; settings: S. aureus NCTC10649M, unit assumed
[20] = test system: MYCOBACTERIUM SMEGMATIS ATCC 114; experiment: as above; settings: M. smegmatis ATCC 114, unit assumed
ESCHERICHIA COLI KNK 437 = settings: E. coli KNK 437; BHI agar; unit assumed
[21] = test system: PSEUDOMONAS AERUGINOSA K799/WT; experiment: In vitro antibacterial activity, MIC, BHI agar dilution; settings: P. aeruginosa K799/WT, unit assumed
H. Influenza Dill AMP R = experiment: In vitro antibacterial activity against H. Influenza Dill AMP R, MIC; settings: separate assay, unit assumed
Method in brief: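 Agar dilution in Brain Heart Infusion agar, twelve successive compound dilutions, inoculated by Steers replicator with 1:100 (1:10 for slow growers) culture dilutions. Incubation 35-37° C. for 20 to 24 hours; MIC is lowest concentration giving no growth, slight haze or sparse colonies versus drug-free control.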

[22] = test system: STAPHYLOCOCCUS AUREUS A5177; experiment: In vitro antibacterial activity, MIC, BHI agar dilution; settings: S. aureus A5177, unit assumed
[23] = test system: STAPHYLOCOCCUS AUREUS CMX 553; experiment: as above; settings: S. aureus CMX 553, unit assumed

| SMILES | MIC [2] [µg/mL] | MIC [3] [µg/mL] | MIC [4] [µg/mL] | MIC (PSEUDOMONAS CEPACIA 296I) [µg/mL] | MIC [5] [µg/mL] | MIC (CANDIDA ALBICANS CCH 442) [µg/mL] | MIC [6] [µg/mL] | MIC (STR[…] 508) [µg/mL] | MIC (M[…] ATCC 4698) [µg/mL] | MIC (EN[…] ATCC 8043) [µg/mL] | MIC (M[…] ATCC 9341) [µg/mL] | MIC (ESCHERICHIA COLI JUHL) [µg/mL] | MIC [7] [µg/mL] | MIC [8] [µg/mL] | MIC [9] [µg/mL] | MIC [10] [µg/mL] | MIC (ESCHERICHIA COLI H560) [µg/mL] | MIC [11] [µg/mL] | MIC [12] [µg/mL] | MIC [13] [µg/mL] | further results |
| --- | --- | --- | --- | --- | --- | --- | --- | --- | --- | --- | --- | --- | --- | --- | --- | --- | --- | --- | --- | --- | --- |
| CC[C@H]1OC(=O)[C@H](C)C(=O)[C@H](C)[C@@H](O[C@@H]2O[C@H](C)C[C@H](N(C)C)[C@H]2O)[C@](C)(OC)C[C@@H](C)C2=N[C@@H]3CNC[C@@H]3N3C(=O)O[C@@]1(C)[C@H]3[C@H]2C [Example 19] | 0.005 (≈ 0.00737 µM) | 0.39 (≈ 0.574 µM) | 0.39 (≈ 0.574 µM) | > 100 | 0.39 (≈ 0.574 µM) | > 100 | > 100 | 0.05 (≈ 0.0737 µM) | 0.2 (≈ 0.295 µM) | 0.05 (≈ 0.0737 µM) | 0.1 (≈ 0.147 µM) | 12.5 (≈ 18.4 µM) | > 100 | 6.2 (≈ 9.13 µM) | > 100 | 12.5 (≈ 18.4 µM) | 3.1 (≈ 4.57 µM) | 12.5 (≈ 18.4 µM) | > 100 | 50 (≈ 73.7 µM) | MIC [1]: 0.78 µg/mL (≈ 1.15 µM); MIC (ESCHERICHIA COLI DC-2): 6.2 µg/mL (≈ 9.13 µM); MIC [14]: 0.05 µg/mL (≈ 0.0737 µM); MIC [15]: > 100 µg/mL; MIC [16]: > 100 µg/mL; MIC [17]: 0.39 µg/mL (≈ 0.574 µM); MIC (ESCHERICHIA COLI SS): 0.2 µg/mL (≈ 0.295 µM); MIC [18]: > 100 µg/mL; MIC [19]: 0.39 µg/mL (≈ 0.574 µM); MIC [20]: 3.1 µg/mL (≈ 4.57 µM); MIC (ESCHERICHIA COLI KNK 437): 6.2 µg/mL (≈ 9.13 µM); MIC [21]: > 100 µg/mL; MIC (H. Influenza Dill AMP R): 16 µg/mL (≈ 23.6 µM); MIC [22]: 0.39 µg/mL (≈ 0.574 µM); MIC [23]: 0.39 µg/mL (≈ 0.574 µM) |
| CC[C@H]1OC(=O)[C@H](C)C(=O)[C@H](C)[C@@H](O[C@@H]2O[C@H](C)C[C@H](N(C)C)[C@H]2O)[C@](C)(OC)C[C@@H](C)C2=NC[C@H](CCCc3ccccc3)N3C(=O)O[C@@]1(C)[C@H]3[C@H]2C [Example 40] | 0.02 (≈ 0.0265 µM) | 0.78 (≈ 1.03 µM) | 0.78 (≈ 1.03 µM) | > 100 | 0.39 (≈ 0.516 µM) | > 100 | 100 (≈ 132 µM) | 0.05 (≈ 0.0661 µM) | 0.39 (≈ 0.516 µM) | 0.05 (≈ 0.0661 µM) | 0.05 (≈ 0.0661 µM) | > 100 | > 100 | 50 (≈ 66.1 µM) | > 100 | > 100 | 25 (≈ 33.1 µM) | > 100 | > 100 | > 100 | MIC [1]: 0.2 µg/mL (≈ 0.265 µM); MIC (ESCHERICHIA COLI DC-2): 100 µg/mL (≈ 132 µM); MIC [14]: 0.02 µg/mL (≈ 0.0265 µM); MIC [15]: > 100 µg/mL; MIC [16]: > 100 µg/mL; MIC [17]: 0.78 µg/mL (≈ 1.03 µM); MIC (ESCHERICHIA COLI SS): 0.78 µg/mL (≈ 1.03 µM); MIC [18]: > 100 µg/mL; MIC [19]: 0.78 µg/mL (≈ 1.03 µM); MIC [20]: 0.39 µg/mL (≈ 0.516 µM); MIC (ESCHERICHIA COLI KNK 437): > 100 µg/mL; MIC [21]: > 100 µg/mL; MIC (H. Influenza Dill AMP R): 4 µg/mL (≈ 5.29 µM); MIC [22]: 0.78 µg/mL (≈ 1.03 µM); MIC [23]: 0.78 µg/mL (≈ 1.03 µM) |
| CC[C@H]1OC(=O)[C@H](C)C(=O)[C@H](C)[C@@H](O[C@@H]2O[C@H](C)C[C@H](N(C)C)[C@H]2O)[C@](C)(OC)C[C@@H](C)C2=NC3CN(C(C)=O)CC3N3C(=O)O[C@@]1(C)[C@H]3[C@H]2C (stereo partly shown) [Example 125] | 0.2 (≈ 0.277 µM) | 12.5 (≈ 17.3 µM) | 6.2 (≈ 8.6 µM) | > 100 | 6.2 (≈ 8.6 µM) | > 100 | > 100 | 0.39 (≈ 0.541 µM) | 6.2 (≈ 8.6 µM) | 1.56 (≈ 2.16 µM) | 0.78 (≈ 1.08 µM) | > 100 | > 100 | 100 (≈ 139 µM) | > 100 | > 100 | > 100 | > 100 | > 100 | > 100 | MIC (ESCHERICHIA COLI DC-2): > 100 µg/mL; MIC [14]: 0.1 µg/mL (≈ 0.139 µM); MIC [15]: > 100 µg/mL; MIC [16]: > 100 µg/mL; MIC (ESCHERICHIA COLI SS): 0.78 µg/mL (≈ 1.08 µM); MIC [18]: > 100 µg/mL; MIC [19]: 6.2 µg/mL (≈ 8.6 µM); MIC [20]: 50 µg/mL (≈ 69.4 µM); MIC (ESCHERICHIA COLI KNK 437): > 100 µg/mL; MIC [21]: > 100 µg/mL; MIC (H. Influenza Dill AMP R): 128 µg/mL (≈ 178 µM); MIC [22]: 6.2 µg/mL (≈ 8.6 µM); MIC [23]: 6.2 µg/mL (≈ 8.6 µM) |
